Test results reported in patent US10398751B2, “Pharmaceutical compositions of water soluble peptides with poor solubility in isotonic conditions and methods for their use” (STRONGBRIDGE IRELAND LIMITED, priority 2016, dated 2019).

Assay: Comparative surface tension of peptides in water for injection
Type: physicochemical
Settings: 10 mg/ml in WFI

Effect of reduced surface tension (%) (baseline WFI): −37% | Water surface tension (dyne/cm) (baseline WFI 52): 33 dyne/cm
Structure (SMILES): C[C@@H](O)[C@@H]1NC(=O)[C@H](CCCCN)NC(=O)[C@@H](Cc2c[nH]c3ccccc23)NC(=O)[C@H](Cc2c[nH]c3ccccc23)NC(=O)[C@H](Cc2ccccc2)NC(=O)CCCNC(=O)CCCN(CC(N)=O)C(=O)[C@H](Cc2ccccc2)NC1=O [Veldoreotide, cyclo(-γ-aminobutyryl-L-phenylalanyl-L-tryptophanyl-D-tryptophanyl-L-lysyl-L-threonyl-L-phenylalanyl-N-carbamoylmethyl-γ-aminobutyryl)]
